Laboratory results as given in patent US8394848B2, “Compounds that modulate intracellular calcium” (Calcimedica, Inc., priority 2008, dated 2013).

tested on: JR251 or RBL cells; assay: Store-operated calcium entry, either JR251 or RBL cells, or both; type: cell-based
Outline: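 Orai1/STIM1 stable cells: fluo-4-AM loaded, compound 30 min at RT in Ca2+-free HBSS, then CaCl2 added; IC50 from Peak-Basal FLIPR fluorescence. RBL-2H3 cells: compound 5 min, then thapsigargin (5.5× stock, 5.5 uM) 25 min, then calcium added; IC50 from Upslope (signal 7 s after calcium minus baseline).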

IC50, < 10 µM:
CC(C(=O)Nc1scc(-c2ccc(Cl)cc2)c1C(=O)O)C(C)c1ccccc1 (centres unmarked) [4-(4-chlorophenyl)-2-(2-methyl-3-phenylbutanamido)thiophene-3-carboxylic acid]
O=C(Nc1scc(-c2ccc(Br)cc2)c1C(=O)O)c1cc2ccccn2n1 [4-(4-bromophenyl)-2-(pyrazolo[1,5-a]pyridine-2-carboxamido)thiophene-3-carboxylic acid]
O=C(CCc1ccc(F)c(F)c1)Nc1scc(-c2ccc(Cl)cc2)c1C(=O)O [4-(4-chlorophenyl)-2-(3-(3,4-difluorophenyl)propanamido)thiophene-3-carboxylic acid]
O=C(Nc1scc(-c2ccc(Cl)cc2)c1C(=O)O)c1ncc(C(F)(F)F)cn1 [4-(4-chlorophenyl)-2-(5-(trifluoromethyl)pyrimidine-2-carboxamido)thiophene-3-carboxylic acid]
Cn1cnc(C(=O)Nc2scc(-c3ccc(Cl)cc3)c2C(=O)O)c1 [4-(4-chlorophenyl)-2-(1-methyl-1H-imidazole-4-carboxamido)thiophene-3-carboxylic acid]
O=C(O)c1c(-c2ccc(Cl)cc2)csc1NC(=O)[C@H](F)Cc1ccccc1Cl [(R)-4-(4-chlorophenyl)-2-(3-(2-chlorophenyl)-2-fluoropropanamido)thiophene-3-carboxylic acid]
Cc1ccc(-c2csc(NC(=O)c3cc4sccc4s3)c2C(=O)O)c(F)c1F [4-(2,3-difluoro-4-methylphenyl)-2-(thieno[3,2-b]thiophene-2-carboxamido)thiophene-3-carboxylic acid]
O=C(Nc1scc(-c2ccccc2Br)c1C(=O)O)c1cccs1 [4-(2-bromophenyl)-2-(thiophene-2-carboxamido)thiophene-3-carboxylic acid]
Cc1nnsc1C(=O)Nc1scc(-c2ccc(Cl)cc2)c1C(=O)O [4-(4-chlorophenyl)-2-(4-methyl-1,2,3-thiadiazole-5-carboxamido)thiophene-3-carboxylic acid]
O=C(Nc1scc(-c2ccc(Cl)c(C(F)(F)F)c2)c1C(=O)O)c1nc2ccccc2o1 [2-(benzo[d]oxazole-2-carboxamido)-4-(4-chloro-3-(trifluoromethyl)phenyl)thiophene-3-carboxylic acid]
O=C(Nc1scc(-c2cc3cc(O)ccc3o2)c1C(=O)O)c1cc2ccccc2o1 [2-(benzofuran-2-carboxamido)-4-(5-hydroxybenzofuran-2-yl)thiophene-3-carboxylic acid]
O=C(Nc1scc(-c2ccc(F)c(O)c2F)c1C(=O)O)c1cc2ccccc2o1 [2-(benzofuran-2-carboxamido)-4-(2,4-difluoro-3-hydroxyphenyl)thiophene-3-carboxylic acid]
O=C(Nc1scc(-c2ccc(Cl)cc2)c1C(=O)O)c1cc2sccc2s1 [4-(4-chlorophenyl)-2-(thieno[3,2-b]thiophene-2-carboxamido)thiophene-3-carboxylic acid]
O=C(Nc1scc(-c2ccc(Cl)cc2)c1C(=O)O)OCc1ccccc1Cl [2-((2-chlorobenzyloxy)carbonylamino)-4-(4-chlorophenyl)thiophene-3-carboxylic acid]
O=C(Nc1scc(-c2ccc(Br)c(F)c2F)c1C(=O)O)c1nc2ccccc2o1 [2-(benzo[d]oxazole-2-carboxamido)-4-(4-bromo-2,3-difluorophenyl)thiophene-3-carboxylic acid]
O=C(NCCc1ccccc1)Nc1scc(-c2ccc(Cl)cc2)c1C(=O)O [4-(4-chlorophenyl)-2-(3-phenethylureido)thiophene-3-carboxylic acid]
O=C(Nc1scc(-c2ccc(Cl)cc2)c1C(=O)O)c1nc2c([N+](=O)[O-])cccc2s1 [4-(4-chlorophenyl)-2-(4-nitrobenzo[d]thiazole-2-carboxamido)thiophene-3-carboxylic acid]
O=C(Nc1scc(-c2ccc(Cl)cc2)c1C(=O)O)c1cc2c(F)cccn2n1 [4-(4-chlorophenyl)-2-(4-fluoropyrazolo[1,5-a]pyridine-2-carboxamido)thiophene-3-carboxylic acid]
O=C(Nc1scc(-c2cc3cccc(O)c3o2)c1C(=O)O)c1nc2ccccc2o1 [2-(benzo[d]oxazole-2-carboxamido)-4-(7-hydroxybenzofuran-2-yl)thiophene-3-carboxylic acid]
O=C(Nc1scc(-c2ccc(Cl)cc2)c1C(=O)O)c1ccc2scnc2c1 [2-(benzo[d]thiazole-5-carboxamido)-4-(4-chlorophenyl)thiophene-3-carboxylic acid]
O=C(CCc1ccco1)Nc1scc(-c2ccc(Cl)cc2)c1C(=O)O [4-(4-chlorophenyl)-2-(3-(furan-2-yl)propanamido)thiophene-3-carboxylic acid]
O=C(O)c1c(-c2ccc(Cl)cc2)csc1NC(=O)[C@@H](F)Cc1ccccc1Cl [(S)-4-(4-chlorophenyl)-2-(3-(2-chlorophenyl)-2-fluoropropanamido)thiophene-3-carboxylic acid]
O=C(Nc1scc(-c2ccc(Cl)cc2)c1C(=O)O)c1ccc2ccccc2n1 [4-(4-chlorophenyl)-2-(quinoline-2-carboxamido)thiophene-3-carboxylic acid]
O=C(Nc1scc(-c2ccc(Cl)cc2)c1C(=O)O)c1nc2cc(Cl)ccc2o1 [2-(5-chlorobenzo[d]oxazole-2-carboxamido)-4-(4-chlorophenyl)thiophene-3-carboxylic acid]
O=C(Nc1scc(-c2ccc(Br)cc2)c1C(=O)O)c1ccco1 [4-(4-bromophenyl)-2-(furan-2-carboxamido)thiophene-3-carboxylic acid]
O=C(O)c1c(-c2ccc(Cl)cc2)csc1NC(=O)[C@H]1CCc2ccccc2C1 [(S)-4-(4-chlorophenyl)-2-(1,2,3,4-tetrahydronaphthalene-2-carboxamido)thiophene-3-carboxylic acid]
O=C(CCc1ccccc1)Nc1scc(-c2cc(F)c(Cl)cc2Cl)c1C(=O)O [4-(2,4-dichloro-5-fluorophenyl)-2-(3-phenylpropanamido)thiophene-3-carboxylic acid]
O=C(Nc1scc(-c2c(F)cc(F)cc2F)c1C(=O)O)c1cc2ccccc2o1 [2-(benzofuran-2-carboxamido)-4-(2,4,6-trifluorophenyl)thiophene-3-carboxylic acid]
COc1c(Cl)ccc(-c2csc(NC(=O)c3cc4ccccc4o3)c2C(=O)O)c1Cl [2-(benzofuran-2-carboxamido)-4-(2,4-dichloro-3-methoxyphenyl)thiophene-3-carboxylic acid]
O=C(Nc1scc(-c2ccc(Cl)cc2)c1C(=O)O)/C(F)=C/c1ccccc1 [(Z)-4-(4-chlorophenyl)-2-(2-fluoro-3-phenylacryl amido)thiophene-3-carboxylic acid]
N#Cc1ccc(-c2csc(NC(=O)c3ccc4snnc4c3)c2C(=O)O)cc1 [2-(benzo[d][1,2,3]thiadiazole-5-carboxamido)-4-(4-cyanophenyl)thiophene-3-carboxylic acid]
O=C(Nc1scc(OC(=O)c2cc3ccccc3o2)c1C(=O)O)OCc1ccccc1 [4-(benzofuran-2-carbonyloxy)-2-(benzyloxycarbonylamino)thiophene-3-carboxylic acid]
Cc1ccc(-c2csc(NC(=O)c3cn4ccsc4n3)c2C(=O)O)c(F)c1F [4-(2,3-difluoro-4-methylphenyl)-2-(imidazo[2,1-b]thiazole-6-carboxamido)thiophene-3-carboxylic acid]
O=C(Nc1scc(-c2ccc(Cl)cc2)c1C(=O)O)c1cc2c(Cl)cc(Cl)cc2[nH]1 [4-(4-chlorophenyl)-2-(4,6-dichloro-1H-indole-2-carboxamido)thiophene-3-carboxylic acid]
O=C(Nc1scc(-c2ccc(Br)cc2)c1C(=O)O)c1ccc(-c2ccccc2)s1 [4-(4-bromophenyl)-2-(5-phenylthiophene-2-carboxamido)thiophene-3-carboxylic acid]
O=C(Nc1scc(-c2ccc(Cl)cc2)c1C(=O)O)c1nc2cc(Br)ccc2o1 [2-(5-bromobenzo[d]oxazole-2-carboxamido)-4-(4-chlorophenyl)thiophene-3-carboxylic acid]
O=C(NCc1ccccc1)Nc1scc(-c2ccc(Br)cc2)c1C(=O)O [2-(3-benzylureido)-4-(4-bromophenyl)thiophene-3-carboxylic acid]
Cc1cccc2nc(C(=O)Nc3scc(-c4ccc(Cl)cc4)c3C(=O)O)oc12 [4-(4-chlorophenyl)-2-(7-methylbenzo[d]oxazole-2-carboxamido)thiophene-3-carboxylic acid]
Cc1cc(C(=O)Nc2scc(-c3ccc(Cl)cc3)c2C(=O)O)c(C)o1 [4-(4-chlorophenyl)-2-(2,5-dimethylfuran-3-carboxamido)thiophene-3-carboxylic acid]
O=C(Nc1scc(-c2ccc(Cl)c(F)c2)c1C(=O)O)c1nc2ccccc2s1 [2-(benzo[d]thiazole-2-carboxamido)-4-(4-chloro-3-fluorophenyl)thiophene-3-carboxylic acid]
COc1ccc(-c2csc(NC(=O)c3nc4ccccc4o3)c2C(=O)O)c(Cl)c1 [2-(benzo[d]oxazole-2-carboxamido)-4-(2-chloro-4-methoxyphenyl)thiophene-3-carboxylic acid]
